Test results reported in patent publication US7652015B2, “Kinase inhibitors” (Eli Lilly and Company, priority 2006, dated 2010).

Tests used:
p-MAPKAPK2 = test: Inhibition of p-MAPKAPK2 in vitro, anisomycin-stimulated RAW 264.7 cells, ELISA; assay type: cell-based, murine; settings: Mus musculus, RAW264.7, read-out: IC50, inhibition of p-MAPKAPK2 in vitro
Procedure: RAW 264.7 cells (a murine monocytic/macrophage line ATCC) are seeded at a density of 50,000 cells/well in 96-well plates with RPMI-1640 medium plus 10% fetal bovine serum (FBS) and allowed to settle and adhere to the bottom of the well for 48 hours. After reaching confluence, cells are treated for 2 hours with 10 serial dilutions of different compounds. A control compound is always included. After 2 hours, anisomicin (100 ug/ml) is added and cells are incubated for 30 minutes at 37° C. under a 5% CO2 atmosphere. Then, cells are fixed and treated with hydrogen peroxide in order to remove endogenous peroxidase. Finally, plates are blocked with FBS, washed, and an ELISA assay is carried out by using an antiphospho-MAPKAPK (Thr 334, Cell Signalling, Cat # 3041) antibody and ahP-Conjugated Secondary Antibody. This reaction is detected by using FEMTO (Pierce) which is an enhanced chemiluminiscent substrate ahP that results in rapid kinetic light output and high signal intensity.

[1] = Oral exposure in male Fischer 344 rats; assay type: in vivo; settings: rat, 1 mg/kg, fasted, gavage, suspension 1 mg/mL at 1 mL/kg, plasma
Procedure: Compounds are screened for oral exposure in male Fischer 344 rats. Animals are fasted overnight and administered test compounds prepared as suspensions in sodium carboxymethylcellulose (1% w/v) containing Tween 80 (0.25% v/v) and antifoam (0.1% w/v). Dose suspensions are prepared at 1 mg/mL and administered at 1 mL/kg by gavage. Blood samples are taken between 0.5 h and 7 h after dose administration and plasma are prepared by centrifugation. Plasma samples are analyzed using online solid phase extraction and LC/MS/MS.

TNFα = test: Effect on intra-articular LPS induced TNFα in rat ankle synovial lavage fluid; assay type: in vivo; settings: female Lewis rats, orally, intra-articular LPS 10 μg one hour later, lavage after two hours
Procedure: Intra-articular injection of LPS into rat ankles induces the synthesis of TNFα, which can be measured in synovial lavage fluid. High levels of TNFα are detectable within 2 hours. Since the joint is the site where arthritis develops, this model can rapidly determine whether an orally administered compound has an effect on an inflammatory response in the synovium.
Six female Lewis rats (150-200 g) are place in each treatment group. The animals are given vehicle (1% NaCarboxymethylcellulose-0.25% Tween 80) or test compound
(1 mg/kg, 3 mg/kg, 10 mg/kg, and 30 mg/kg) orally. One hour later, 10 μl LPS (10 μg) is administered intra-articularly into the right ankle of each rat, while the left ankle receives 10 μL of saline. After two hours, each ankle is lavaged with 100 μL of saline. The lavage is collected and stored at −80° C. • Group #1: Vehicle (1% NaCMC-0.25% Tween 80, 1 mL, PO) • Group #2: Test compound (1 mg/kg, 1 mL, PO) • Group #3: Test compound (3 mg/kg, 1 mL, PO) • Group #4: Test compound (10 mg/kg, 1 mL, PO) • Group #5: Test compound (30 mg/kg, 1 mL, PO)
TNFα is measured with a commercially available ELISA kit (R&D, RTA00).

Phospho-MAPKAPK2 = test: Anisomycin-stimulated mice ex-vivo phospho-MAPKAPK2 inhibition assay by flow cytometry; assay type: in vivo; settings: female Balb/c mice, po, blood after 2 hours, ex vivo 10 μg/ml anisomycin, CD11b+Ly6G- cells
Procedure: Female Balb/c mice with 8-10 week-old age are purchased from Taconic Inc. and dosed po with 0.2 mL volume of compounds at the concentrations of 30, 10, 3, 1 mg/kg. Blood is obtained from cardiac puncture after 2 hours or other indicated time periods and collected in EDTA-containing tubes. 100 μL of blood is incubated at 37° C. for 10 minutes. Whole blood is then mixed with FITC-conjugated rat anti-mouse Ly-6G mAb (1:250) and APC-conjugated rat anti-mouse CD11b mAb (1:100) and stimulated with 10 μg/ml anisomycin. Both cell surface antigen staining and anisomycin stimulation is conducted at 37° C. for 15 min and followed up with Lyse/Fix buffer (BD Biosciences, Cat#558049) for 10 min at room temperature. Lysed blood samples are spun down at 600×g for 8 minutes at room temperature with additional wash once by 4 mL PBS. 200 μL of diluted anti-Phospho-MAPKAPK-2 (Thr334) antibody (1:100 dilution) (Cell Signaling, Cat#3041) and mouse BD Fc Block (1:100 dilution) (BD Biosciences, 553141) in permeabilization Medium B (Caltag, Catg GAS002S-5) are added into blood cells and incubate at room temperature for 30 minutes. After the incubation, 3 mL of stain/wash buffer is added and cells are spanned down as described above with additional wash with 3 ml stain/wash buffer. […] Mean fluorescence of phosphono-MapKap-K2 staining is measured on gated CD11b+Ly6G-cells. […]

With `CS(=O)(=O)O.Cc1ccc(-n2nc(C(C)(C)C)cc2NC(=O)Nc2ccc(N3CCN(C(=O)c4c(F)cccc4F)CC3)nc2C)cc1` [Example 5, 1-(5-tert-Butyl-2-p-tolyl-2H-pyrazol-3-yl)-3-{6-[4-(2,6-difluoro-benzoyl)-piperazin-1-yl]-2-methyl-pyridin-3-yl}-urea methanesulfonate] the IC50 (p-MAPKAPK2) was 4.5 nM, the Cmax [1] was 9390 ng/mL and the AUC(0-t) ([1]; read-out: AUC(0-7h)) was 36800 ng·h/mL. For the same compound, the “TMED50, inhibition of TNFα synthesis in synovial lavage fluid” value (TNFα) was 3.57 mg/kg and the “TMED50, inhibition of p-MAPKAPK synthesis” value (Phospho-MAPKAPK2) was 2.28 mg/kg.
